Experimental data from patent US12208227B2, “Precision bio-chemotronic system” (THE REGENTS OF THE UNIVERSITY OF MICHIGAN, priority 2017, dated 2025).
≈ marks a conversion by molar mass, not a printed value.

How the values were obtained:
[1] = Dissolution of printed films versus original loose powders; type: physicochemical
Source text: (§2) Drug dissolution was monitored by in-situ UV-VIS Ocean Optics USB+2000 spectrometer with T300-UV-VIS transmission dip probe, with a 10 mm optical path.
(§3) For dissolution from film, the glass substrate with printed film was attached to rotating rod with substrate holder. In case of compressed powder pellet, 1.57 mm diameter pellet was compressed at 50±2 psi for approximately 10 seconds into a holder having same size as disk substrate holder. […] In all cases the same vessel and solution volume of 10 ml was used. Testing temperature was room temperature−20±1° C. Sink conditions were defined as C<5Cs.
As-received API powders having the same weight as the films were introduced into 10 ml solutions without any prior treatment, and stirred using a rotation rod with the same shape and diameter as the one used for film dissolution.

[2] = Intrinsic dissolution rate, rotating disk dissolution apparatus; type: physicochemical; settings: films comparable to compressed pellets, 100 rpm, 10 ml, 20±1° C.
Source text: as §2
Dissolution Rate Measurement
as §3
To measure dissolution kinetics, a rotating disk dissolution apparatus (see FIG. 30 for details) was used with rotational speed of 100 rpm. Concentration was monitored using a UV-VIS spectrometer equipped with a dip probe. The compounds were tested both in powder form (compressed into pellets for rotating disk dissolution) and in film form. […]
[formula] where m is the dissolved solute mass, and (dm/dt)max is the maximum slope in the dissolution curve that plots the amount of dissolved material versus time, typically evaluated at the start of dissolution process, where the concentration driving force is highest. […]

[3] = physchem; settings: 20 °C, pH 1.2, simulated gastric fluid, thermodynamic from solid
Experimental: Solubility tests were performed at ambient temperature (20±1° C.). Solutions with excess concentration (at least 100 μg/ml of solid) were shaken at approximately 1,000 rpm for 48 hours, followed by solution filtration with 0.4 μm filter after 24 hrs. Filtered solutions concentrations were then measured using UV-VIS spectrometry, calibrated with known solutions concentrations. Five different concentrations for calibration were used in each test.
Solution volume remained constant in all experiments, 10 ml, and temperature was 20±1° C.

[4] = tested on: OVCAR3 cells (ovarian carcinoma); assay: Cancer cell growth/viability, live cell counts by trypan blue exclusion; type: cell-based
Experimental: (§1) The cells were plated onto 12-well tissue culture dishes, and allowed to adhere and grow for 24 hours in 2.5 ml of 10% fetal bovine serum-supplemented growth medium. […] Slides were removed following this initial period, and live cell counts were determined using trypan blue exclusion using a hemocytometer at 1, 4, 8, 12, 24 and 48 hours following film treatment. At least 3 samples were tested at each time point.

[5] = tested on: MCF7 cells (breast carcinoma); assay: as above; type: cell-based
Experimental: as §1

[6] = film form, nominal 5 μM (4.5 μg per film)
[7] = powder form in growth medium, nominal 5 μM

SMILES: Cn1c(=O)c2c(ncn2C)n(C)c1=O [Caffeine]
- dissolution in the film form (qualitative) ([1]; film form): instantaneous dissolution

SMILES: CC(C)Cc1ccc(C(C)C(=O)O)cc1 (stereo not drawn) [ibuprofen]
- enhancement of initial dissolution rate, film-form versus loose powder ([1]; aqueous HCl buffer pH 1.2, 70 μg weight, 10 ml): thirty-fold
- intrinsic dissolution rate (IDR) ([2]; aqueous HCl buffer pH 1.2): 1·10^−3±3·10^−4 μg sec^−1 mm^−2
- solubility at 48 h [3]: 22.5 ± 0.5 µg/mL (≈ 109 µM)

SMILES: CC/C(=C(\c1ccccc1)c1ccc(OCCN(C)C)cc1)c1ccccc1 [tamoxifen]
- intrinsic dissolution rate (IDR) ([2]; aqueous acetate buffer pH 4.9): 6.10^−4±1·10^−4 μg sec^−1 mm^−2
- cancer cells' viability after 48 hours [4, 6]: 44%
- cancer cells' viability after 48 hours [4, 7]: 68%
- cancer cells' viability after 48 hours [5, 6]: 58%
- cancer cells' viability after 48 hours [5, 7]: 79%
